# According to ChEMBL document CHEMBL5154748, “Discovery of novel 3-butyl-6-benzyloxyphthalide Mannich base derivatives as multifunctional agents against Alzheimer's disease” (Bioorg Med Chem, 2022):
# Active and inactive are the calls of the source. The calls are words filed in the database; no cut-off is given here.
# Tested on: BV-2
# Test: Cytotoxicity against mouse BV-2 cells at 10 uM in presence of LPS by MTT method
# Assay type: toxicity, cell-based
# Details: bv-2, 10 µM
row,SMILES,Activity
1,CCCCC1OC(=O)c2cc(OCc3ccc(CN4CCCCC4)c(O)c3)ccc21 (centres undefined),Non-Toxic

# Tested on: PC-12
# Test: Neuroprotective against H2O2-induced rat PC-12 cell injury assessed as cell viability at 10 uM by MTT assay (reference value: 48.0%)
# Assay type: functional
# Details: read-out: Activity
row,SMILES,viability at 10 µM [%]
1,CCCCC1OC(=O)c2ccccc21 (racemic) [RAC-3-N-BUTYLPHTHALIDE],64.1
2,CCCCC1OC(=O)c2cc(OCc3ccc(CN4CCCCC4)c(O)c3)ccc21 (centres undefined),71.1

# Tested on: not listed separately
# Test: Metal chelating activity assessed as Cu2+-compound complex formation at 37.5 uM by UV-visible spectrophotometry
# Details: not given
row,SMILES,Activity
1,CCCCC1OC(=O)c2cc(OCc3ccc(CN4CCCCC4)c(O)c3)ccc21 (centres undefined),Active

# Tested on: BV-2
# Test: Inhibition of LPS-induced ROS production in mouse BV-2 cells assessed as complete reversal at 10 uM by DCFH-DA staining based fluorescence analysis
# Assay type: functional, cell-based
# Details: not given
row,SMILES,inhibition
1,CCCCC1OC(=O)c2cc(OCc3ccc(CN4CCCCC4)c(O)c3)ccc21 (centres undefined),Active

# Tested on: BV-2
# Test: Antineuroinflammatory activity in mouse BV-2 cells assessed as inhibition of LPS-induced TNF-alpha production at 10 uM after 24 hrs by ELISA
# Assay type: functional
# Details: not given
row,SMILES,inhibition at 10 µM [%]
1,CCCCC1OC(=O)c2ccccc21 (racemic) [RAC-3-N-BUTYLPHTHALIDE],43.7
2,CCCCC1OC(=O)c2cc(OCc3ccc(CN4CCCCC4)c(O)c3)ccc21 (centres undefined),63.2

# Tested on: not listed separately
# Test: Inhibition of reactive oxygen species production using Cu-ascorbate redox system by coumarin-3-carboxylic acid dye based fluorescence analysis
# Assay type: functional
# Details: not given
row,SMILES,inhibition
1,CCCCC1OC(=O)c2cc(OCc3ccc(CN4CCCCC4)c(O)c3)ccc21 (centres undefined),Active

# Tested on: BV-2
# Test: Inhibition of LPS-induced ROS production in mouse BV-2 cells at 2.5 uM by DCFH-DA staining based fluorescence analysis
# Assay type: functional, cell-based
# Details: not given
row,SMILES,inhibition
1,CCCCC1OC(=O)c2cc(OCc3ccc(CN4CCCCC4)c(O)c3)ccc21 (centres undefined),Active

# Tested on: PC-12
# Test: Neuroprotective against H2O2-induced rat PC-12 cell injury assessed as cell viability at 4 uM by MTT assay (reference value: 48.0%)
# Assay type: functional
# Details: read-out: Activity
row,SMILES,viability at 4 µM [%]
1,CCCCC1OC(=O)c2cc(OCc3ccc(CN4CCCCC4)c(O)c3)ccc21 (centres undefined),56.3

# Tested on: BV-2
# Test: Antineuroinflammatory activity in mouse BV-2 cells assessed as inhibition of LPS-induced TNF-alpha production at 0.5 uM after 24 hrs by ELISA
# Assay type: functional
# Details: not given
row,SMILES,inhibition at 0.5 µM [%]
1,CCCCC1OC(=O)c2ccccc21 (racemic) [RAC-3-N-BUTYLPHTHALIDE],15.2
2,CCCCC1OC(=O)c2cc(OCc3ccc(CN4CCCCC4)c(O)c3)ccc21 (centres undefined),32.7

# Tested on: BV-2
# Test: Antineuroinflammatory activity in mouse BV-2 cells assessed as inhibition of LPS-induced NO production at 2.5 uM after 24 hrs by Griess reagent based assay
# Assay type: functional
# Details: not given
row,SMILES,inhibition at 2.5 µM [%]
1,CCCCC1OC(=O)c2ccccc21 (racemic) [RAC-3-N-BUTYLPHTHALIDE],22.9
2,CCCCC1OC(=O)c2cc(OCc3ccc(CN4CCCCC4)c(O)c3)ccc21 (centres undefined),43.5

# Molecular target: T1, Acetylcholinesterase (Homo sapiens, UniProt P22303)
# T1 sequence (P22303 whole entry): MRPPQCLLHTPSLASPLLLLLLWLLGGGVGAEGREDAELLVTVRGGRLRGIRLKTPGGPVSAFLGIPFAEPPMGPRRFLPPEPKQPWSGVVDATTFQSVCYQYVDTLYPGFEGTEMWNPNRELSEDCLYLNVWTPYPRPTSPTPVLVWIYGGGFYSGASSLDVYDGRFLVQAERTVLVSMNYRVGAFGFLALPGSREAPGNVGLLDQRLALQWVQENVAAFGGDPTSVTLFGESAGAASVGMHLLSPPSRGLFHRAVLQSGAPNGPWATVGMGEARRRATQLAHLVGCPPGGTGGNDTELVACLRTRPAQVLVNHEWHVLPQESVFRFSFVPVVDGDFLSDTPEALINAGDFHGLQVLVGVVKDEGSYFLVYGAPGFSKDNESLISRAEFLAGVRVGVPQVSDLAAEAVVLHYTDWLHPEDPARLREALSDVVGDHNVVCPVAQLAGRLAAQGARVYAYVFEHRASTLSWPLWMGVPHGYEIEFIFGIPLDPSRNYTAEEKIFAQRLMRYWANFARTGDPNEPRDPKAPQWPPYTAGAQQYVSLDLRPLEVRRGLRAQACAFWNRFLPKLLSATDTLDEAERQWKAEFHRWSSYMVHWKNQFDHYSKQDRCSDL
# Test: Inhibition of Human AChE by Ellman's method
# Details: not given
row,SMILES,IC50 [nM]
1,CCCCC1OC(=O)c2cc(OCc3ccc(CN4CCCCC4)c(O)c3)ccc21 (centres undefined),41
2,CCCCC1OC(=O)c2cc(OCc3ccc(CN4CCN(C)CC4)c(O)c3)ccc21 (centres undefined),23800
3,CCCCC1OC(=O)c2cc(OCc3ccc(CN(CC)CC)c(O)c3)ccc21 (centres undefined),350

# Tested on: not listed separately
# Test: Antioxidant activity assessed as trolox equivalent of ORAC radical scavenging activity by ORAC-FL assay
# Assay type: functional
# Details: not given
row,SMILES,Activity
1,CCCCC1OC(=O)c2ccccc21 (racemic) [RAC-3-N-BUTYLPHTHALIDE],0.21
2,CCCCC1OC(=O)c2cc(OCc3ccc(CN4CCCCC4)c(O)c3)ccc21 (centres undefined),1.86
3,CCCCC1OC(=O)c2cc(OCc3ccc(CN4CCN(C)CC4)c(O)c3)ccc21 (centres undefined),0.96
4,CCCCC1OC(=O)c2cc(OCc3ccc(CN(CC)CC)c(O)c3)ccc21 (centres undefined),1.53

# Tested on: PC-12
# Test: Cytotoxicity against rat PC12 cells assessed as decrease in cell viability at 100 uM by MTT assay
# Assay type: toxicity, cell-based
# Details: pc-12, 100 µM
row,SMILES,Activity
1,CCCCC1OC(=O)c2cc(OCc3ccc(CN4CCCCC4)c(O)c3)ccc21 (centres undefined),Toxic

# Tested on: BV-2
# Test: Antineuroinflammatory activity in mouse BV-2 cells assessed as inhibition of LPS-induced NO production at 10 uM after 24 hrs by Griess reagent based assay
# Assay type: functional
# Details: not given
row,SMILES,inhibition at 10 µM [%]
1,CCCCC1OC(=O)c2ccccc21 (racemic) [RAC-3-N-BUTYLPHTHALIDE],37.2
2,CCCCC1OC(=O)c2cc(OCc3ccc(CN4CCCCC4)c(O)c3)ccc21 (centres undefined),58.9

# Molecular target: T2, Amine oxidase [flavin-containing] A (Homo sapiens, UniProt P21397)
# T2 sequence (P21397 whole entry): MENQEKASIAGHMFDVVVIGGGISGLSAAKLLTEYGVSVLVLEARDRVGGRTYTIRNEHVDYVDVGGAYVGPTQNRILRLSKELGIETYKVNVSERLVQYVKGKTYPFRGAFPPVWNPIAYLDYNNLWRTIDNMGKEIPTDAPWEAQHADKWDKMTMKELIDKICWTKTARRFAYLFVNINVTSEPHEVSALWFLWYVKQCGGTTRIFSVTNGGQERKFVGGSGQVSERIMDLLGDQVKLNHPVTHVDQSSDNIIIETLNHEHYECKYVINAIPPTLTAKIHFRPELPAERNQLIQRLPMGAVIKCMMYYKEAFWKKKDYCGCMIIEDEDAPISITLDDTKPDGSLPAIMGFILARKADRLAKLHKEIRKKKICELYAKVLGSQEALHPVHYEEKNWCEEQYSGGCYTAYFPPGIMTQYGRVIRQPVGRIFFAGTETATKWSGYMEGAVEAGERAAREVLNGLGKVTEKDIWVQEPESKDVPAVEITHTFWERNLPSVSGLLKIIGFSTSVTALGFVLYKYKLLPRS
# Test: Inhibition of human MAO-A at 10 uM by fluorescence assay
# Details: not given
row,SMILES,inhibition at 10 µM [%]
1,CCCCC1OC(=O)c2cc(OCc3ccc(CN4CCCCC4)c(O)c3)ccc21 (centres undefined),18.1
2,CCCCC1OC(=O)c2cc(OCc3ccc(CN4CCN(C)CC4)c(O)c3)ccc21 (centres undefined),22.5
3,CCCCC1OC(=O)c2cc(OCc3ccc(CN(CC)CC)c(O)c3)ccc21 (centres undefined),26.3

# Tested on: PC-12
# Test: Neuroprotective against H2O2-induced rat PC-12 cell injury assessed as cell viability at 25 uM by MTT assay (reference value: 48.0%)
# Assay type: functional
# Details: read-out: Activity
row,SMILES,viability at 25 µM [%]
1,CCCCC1OC(=O)c2cc(OCc3ccc(CN4CCCCC4)c(O)c3)ccc21 (centres undefined),80.2

# Tested on: BV-2
# Test: Cytotoxicity against mouse BV-2 cells at 10 uM by MTT method
# Assay type: toxicity, cell-based
# Details: bv-2, 10 µM
row,SMILES,Activity
1,CCCCC1OC(=O)c2cc(OCc3ccc(CN4CCCCC4)c(O)c3)ccc21 (centres undefined),Non-Toxic

# Molecular target: Butyrylcholinesterase (Rattus norvegicus) (UniProt Q9JKC1)
# Sequence (Q9JKC1 as listed by the source): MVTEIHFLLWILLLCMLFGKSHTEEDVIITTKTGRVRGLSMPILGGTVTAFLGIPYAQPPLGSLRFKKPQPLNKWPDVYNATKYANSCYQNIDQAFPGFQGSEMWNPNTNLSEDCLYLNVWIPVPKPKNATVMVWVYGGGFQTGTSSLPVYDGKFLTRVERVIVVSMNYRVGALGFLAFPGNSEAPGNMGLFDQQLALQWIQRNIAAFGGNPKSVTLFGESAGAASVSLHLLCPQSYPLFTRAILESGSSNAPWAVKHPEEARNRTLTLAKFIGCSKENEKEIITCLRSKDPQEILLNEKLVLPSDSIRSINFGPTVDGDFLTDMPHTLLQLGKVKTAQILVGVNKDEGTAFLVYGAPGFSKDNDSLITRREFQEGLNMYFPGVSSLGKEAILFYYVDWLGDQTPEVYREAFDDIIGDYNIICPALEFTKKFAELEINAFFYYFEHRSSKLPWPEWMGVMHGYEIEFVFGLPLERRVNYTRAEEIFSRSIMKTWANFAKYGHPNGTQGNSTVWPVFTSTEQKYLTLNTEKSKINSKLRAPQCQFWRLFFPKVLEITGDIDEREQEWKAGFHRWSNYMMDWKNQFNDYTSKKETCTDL
# Test: Inhibition of Rat BuChE at 10 uM by Ellman's method
# Details: not given
row,SMILES,inhibition [%]
1,CCCCC1OC(=O)c2cc(OCc3ccc(CN4CCCCC4)c(O)c3)ccc21 (centres undefined),< 5
2,CCCCC1OC(=O)c2cc(OCc3ccc(CN4CCN(C)CC4)c(O)c3)ccc21 (centres undefined),< 5
3,CCCCC1OC(=O)c2cc(OCc3ccc(CN(CC)CC)c(O)c3)ccc21 (centres undefined),8.1

# Tested on: BV-2
# Test: Antineuroinflammatory activity in mouse BV-2 cells assessed as inhibition of LPS-induced NO production at 0.5 uM after 24 hrs by Griess reagent based assay
# Assay type: functional
# Details: not given
row,SMILES,inhibition at 0.5 µM [%]
1,CCCCC1OC(=O)c2ccccc21 (racemic) [RAC-3-N-BUTYLPHTHALIDE],13.4
2,CCCCC1OC(=O)c2cc(OCc3ccc(CN4CCCCC4)c(O)c3)ccc21 (centres undefined),30.4

# Tested on: BV-2
# Test: Antineuroinflammatory activity in mouse BV-2 cells assessed as inhibition of LPS-induced TNF-alpha production at 2.5 uM after 24 hrs by ELISA
# Assay type: functional
# Details: not given
row,SMILES,inhibition at 2.5 µM [%]
1,CCCCC1OC(=O)c2ccccc21 (racemic) [RAC-3-N-BUTYLPHTHALIDE],27.6
2,CCCCC1OC(=O)c2cc(OCc3ccc(CN4CCCCC4)c(O)c3)ccc21 (centres undefined),47.8

# Molecular target: T3, Amine oxidase [flavin-containing] B (Homo sapiens, UniProt P27338)
# T3 sequence (P27338 whole entry): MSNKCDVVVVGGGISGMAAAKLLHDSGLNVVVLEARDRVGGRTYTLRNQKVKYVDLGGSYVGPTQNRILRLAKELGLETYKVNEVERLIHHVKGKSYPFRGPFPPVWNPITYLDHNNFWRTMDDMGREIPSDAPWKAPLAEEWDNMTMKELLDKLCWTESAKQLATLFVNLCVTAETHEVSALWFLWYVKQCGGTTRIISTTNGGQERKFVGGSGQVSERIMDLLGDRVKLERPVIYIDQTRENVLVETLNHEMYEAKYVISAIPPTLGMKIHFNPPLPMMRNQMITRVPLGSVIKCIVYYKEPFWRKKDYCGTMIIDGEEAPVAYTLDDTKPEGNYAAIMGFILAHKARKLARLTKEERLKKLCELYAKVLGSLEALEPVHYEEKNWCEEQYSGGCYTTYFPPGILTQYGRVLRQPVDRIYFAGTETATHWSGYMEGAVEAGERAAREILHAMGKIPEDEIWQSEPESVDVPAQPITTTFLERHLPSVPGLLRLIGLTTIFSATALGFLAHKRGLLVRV
# Test: Inhibition of human MAO-B by fluorescence assay
# Details: not given
row,SMILES,IC50 [nM]
1,CCCCC1OC(=O)c2cc(OCc3ccc(CN4CCCCC4)c(O)c3)ccc21 (centres undefined),300
2,CCCCC1OC(=O)c2cc(OCc3ccc(CN4CCN(C)CC4)c(O)c3)ccc21 (centres undefined),2390
3,CCCCC1OC(=O)c2cc(OCc3ccc(CN(CC)CC)c(O)c3)ccc21 (centres undefined),6810

# Tested on: BV-2
# Test: Inhibition of LPS-induced ROS production in mouse BV-2 cells at 10 uM by DCFH-DA staining based fluorescence analysis
# Assay type: functional, cell-based
# Details: not given
row,SMILES,inhibition
1,CCCCC1OC(=O)c2ccccc21 (racemic) [RAC-3-N-BUTYLPHTHALIDE],Active

# Molecular target: T1, Acetylcholinesterase
# Test: Mixed type inhibition of AChE (unknown origin) by Lineweaver-Burk plot analysis
# Details: not given
row,SMILES,inhibition
1,CCCCC1OC(=O)c2cc(OCc3ccc(CN4CCCCC4)c(O)c3)ccc21 (centres undefined),Active

# Molecular target: Acetylcholinesterase (Electrophorus electricus, UniProt O42275)
# Sequence (O42275 whole entry): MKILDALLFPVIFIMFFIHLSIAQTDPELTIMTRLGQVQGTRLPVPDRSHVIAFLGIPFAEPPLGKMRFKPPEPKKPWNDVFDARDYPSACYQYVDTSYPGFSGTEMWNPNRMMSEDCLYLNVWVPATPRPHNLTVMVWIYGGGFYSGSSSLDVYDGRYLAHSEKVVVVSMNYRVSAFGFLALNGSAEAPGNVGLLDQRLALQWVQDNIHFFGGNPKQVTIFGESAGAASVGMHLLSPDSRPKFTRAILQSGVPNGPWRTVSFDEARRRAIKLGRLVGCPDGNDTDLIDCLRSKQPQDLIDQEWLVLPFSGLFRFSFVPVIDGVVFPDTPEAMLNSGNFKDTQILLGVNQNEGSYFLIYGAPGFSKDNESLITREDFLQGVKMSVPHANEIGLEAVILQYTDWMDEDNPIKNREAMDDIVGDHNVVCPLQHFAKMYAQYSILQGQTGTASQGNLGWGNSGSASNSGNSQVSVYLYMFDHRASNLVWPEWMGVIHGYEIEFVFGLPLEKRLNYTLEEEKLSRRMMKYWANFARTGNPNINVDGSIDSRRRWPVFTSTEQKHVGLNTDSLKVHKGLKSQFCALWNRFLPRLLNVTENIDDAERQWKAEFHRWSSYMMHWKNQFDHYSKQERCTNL
# Test: Inhibition of Electric eel AChE by Ellman's method
# Details: not given
row,SMILES,IC50 [nM]
1,CCCCC1OC(=O)c2cc(OCc3ccc(CN4CCCCC4)c(O)c3)ccc21 (centres undefined),87
2,CCCCC1OC(=O)c2cc(OCc3ccc(CN4CCN(C)CC4)c(O)c3)ccc21 (centres undefined),13600
3,CCCCC1OC(=O)c2cc(OCc3ccc(CN(CC)CC)c(O)c3)ccc21 (centres undefined),640
